Experimental findings from patent US10196436B2, “Inhibitors of the fibroblast growth factor receptor” (BLUEPRINT MEDICINES CORPORATION, priority 2012, dated 2019) are described below.

pIC50: −log10 of the molar value.

One assay addresses wild type FGFR-1 (Homo sapiens (Human), UniProt P11362). The assay is described as follows: FGFR-1 wild type assay at Km (Caliper electrophoretic mobility shift). The following applies: 400 uM ATP, 90 minutes, 25 C; read-out: FGFR1 IC50. In kind it is biochemical. How it is done:
(§1) In order to assess the activity of chemical compounds against the relevant kinase of interest, the Caliper LifeSciences electrophoretic mobility shift technology platform is utilized. Fluorescently labeled substrate peptide is incubated in the presence dosed levels of compounds, a set concentration of kinase and of ATP, so that a reflective proportion of the peptide is phosphorylated. At the end of the reaction, the mix of phosphorylated (product) and non-phosphorylated (substrate) peptides are passed through the microfluidic system of the Caliper LabChip® EZ Reader II, under an applied potential difference. The presence of the phosphate group on the product peptide provides a difference in mass and charge between the product peptide and the substrate peptide, resulting in a separation of the substrate and product pools in the sample. As the pools pass the LEDS within the instrument, these pools are detected and resolved as separate peaks. The ratio between these peaks therefore reflects the activity of the chemical matter at that concentration in that well, under those conditions.
The reaction was stopped by the addition of 70 ul of Stop buffer (100 mM HEPES pH 7.5, 0.015% Brij 35, 35 mM EDTA and 0.2% of Coating Reagent 3 (Caliper Lifesciences)). The plate was then read on a Caliper EZReader 2 (protocol settings: −1.9 psi, upstream voltage −700, downstream voltage −3000, post sample sip 35 s).

Another assay concerns the target wild type FGFR-4 (Homo sapiens (Human), UniProt P22455). Nature of the assay: FGFR-4 wild type assay at Km (Caliper electrophoretic mobility shift). Type of assay: biochemical. Particulars: for pIC50: 400 uM ATP, 90 minutes, 25 C, read-out: FGFR4 IC50; for Ratio FGFR1/FGFR4: [IC50 for FGFR1]/[IC50 for FGFR4]. How it is done:
as §1
The reaction was stopped by the addition of 70 ul of Stop buffer (100 mM HEPES pH 7.5, 0.015% Brij 35, 35 mM EDTA and 0.2% of Coating Reagent 3 (Caliper Lifesciences)). The plate was then read on a Caliper LabChip® EZ Reader II (protocol settings: −1.9 psi, upstream voltage −700, downstream voltage −3000, post sample sip 35 s).

wild type FGFR-1, sequence (P11362 22-822): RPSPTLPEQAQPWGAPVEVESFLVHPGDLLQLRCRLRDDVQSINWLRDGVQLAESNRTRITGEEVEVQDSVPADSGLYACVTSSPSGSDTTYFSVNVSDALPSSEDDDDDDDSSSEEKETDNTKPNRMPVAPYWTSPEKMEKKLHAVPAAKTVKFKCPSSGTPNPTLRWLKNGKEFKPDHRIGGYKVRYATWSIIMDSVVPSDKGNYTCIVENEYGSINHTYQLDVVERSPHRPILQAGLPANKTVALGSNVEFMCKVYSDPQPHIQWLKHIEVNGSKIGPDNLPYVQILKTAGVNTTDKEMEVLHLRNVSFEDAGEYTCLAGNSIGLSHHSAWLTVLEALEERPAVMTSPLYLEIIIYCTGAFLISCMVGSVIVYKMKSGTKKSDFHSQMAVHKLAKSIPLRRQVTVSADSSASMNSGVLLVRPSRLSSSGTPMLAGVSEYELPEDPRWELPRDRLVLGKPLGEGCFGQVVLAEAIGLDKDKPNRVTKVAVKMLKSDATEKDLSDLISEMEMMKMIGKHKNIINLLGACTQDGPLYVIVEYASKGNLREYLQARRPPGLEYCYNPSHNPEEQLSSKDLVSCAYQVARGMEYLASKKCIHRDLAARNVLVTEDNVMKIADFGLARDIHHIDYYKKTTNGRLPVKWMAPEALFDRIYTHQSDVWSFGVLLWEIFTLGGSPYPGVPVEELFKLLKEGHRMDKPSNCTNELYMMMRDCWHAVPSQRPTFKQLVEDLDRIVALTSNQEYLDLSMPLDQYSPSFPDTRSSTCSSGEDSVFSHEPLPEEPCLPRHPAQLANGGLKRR
wild type FGFR-4, sequence (P22455 22-802): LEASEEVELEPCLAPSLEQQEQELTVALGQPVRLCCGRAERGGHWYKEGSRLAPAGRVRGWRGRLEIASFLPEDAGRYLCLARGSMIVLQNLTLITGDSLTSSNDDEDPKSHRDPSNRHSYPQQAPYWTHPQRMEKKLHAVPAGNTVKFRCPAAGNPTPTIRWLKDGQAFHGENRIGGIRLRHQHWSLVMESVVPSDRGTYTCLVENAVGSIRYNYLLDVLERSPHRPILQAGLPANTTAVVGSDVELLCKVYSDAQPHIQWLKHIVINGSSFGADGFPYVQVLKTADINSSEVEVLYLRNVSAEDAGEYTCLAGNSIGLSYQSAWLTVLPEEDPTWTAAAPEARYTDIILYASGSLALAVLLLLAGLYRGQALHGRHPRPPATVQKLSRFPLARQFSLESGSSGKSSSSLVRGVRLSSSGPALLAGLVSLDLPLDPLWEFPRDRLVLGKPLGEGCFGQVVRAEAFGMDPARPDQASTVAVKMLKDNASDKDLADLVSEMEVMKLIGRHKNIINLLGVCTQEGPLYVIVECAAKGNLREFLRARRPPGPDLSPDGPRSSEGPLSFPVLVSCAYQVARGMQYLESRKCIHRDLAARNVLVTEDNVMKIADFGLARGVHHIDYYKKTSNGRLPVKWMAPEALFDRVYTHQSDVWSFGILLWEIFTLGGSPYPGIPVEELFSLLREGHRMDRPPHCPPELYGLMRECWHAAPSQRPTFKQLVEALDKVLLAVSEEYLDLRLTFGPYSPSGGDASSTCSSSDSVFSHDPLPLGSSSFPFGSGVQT

A word on the pIC50: it is −log10 of the IC50, conventionally taken in molar units. As to `C=CC(=O)Nc1ccccc1Nc1ncc2cc(-c3cc(OC)cc(OC)c3)c(=O)n(C)c2n1` [COMPOUND 16], the pIC50 at wild type FGFR-1 is less than 6.00.
In the case of `C=CC(=O)N(C)c1ncc2cc(-c3c(Cl)c(OC)cc(OC)c3Cl)cnc2n1` [COMPOUND 8], at wild type FGFR-4, the negative logarithm of the IC50 (pIC50) is greater than 8.00; the “Ratio FGFR1/FGFR4” value was “E (the ratio is >10 and <50)”.
Turning to `C=CC(=O)Nc1cccc(C)c1Nc1ncc2cc(-c3cc(OC)cc(OC)c3)c(=O)n(C)c2n1` [COMPOUND 19], the negative logarithm of the IC50 (pIC50) at wild type FGFR-1 was less than 6.00.
Same read-out and setting: the result for `C=CC(=O)Nc1ccccc1Nc1nccc(N2CCCC(NS(=O)(=O)CCC)C2)n1` (stereo not drawn) [COMPOUND 11, N-(2-((4-(3-(propylsulfonamido)piperidin-1-yl)pyrimidin-2-yl)amino)phenyl)acrylamide] reads less than 6.00.
As to `C=CC(=O)Nc1cccc(F)c1Nc1ncc2cc(-c3c(Cl)c(OC)cc(OC)c3Cl)cc(OC)c2n1` [COMPOUND 47], on wild type FGFR-4, the pIC50 was greater than 8.00; the “Ratio FGFR1/FGFR4” value is “B (the ratio is ≥200 and <500)”.
For the molecule `C=CC(=O)Nc1ccccc1Nc1ncc2cc(-c3c(Cl)c(OC)cc(OC)c3Cl)c(=O)n(C)c2c1C` [COMPOUND 40, N-(2-((3-(2,6-dichloro-3,5-dimethoxyphenyl)-1,8-dimethyl-2-oxo-1,2-dihydro-1,6-naphthyridin-7-yl)amino)phenyl)acrylamide], the pIC50 on wild type FGFR-1 was less than 6.00.
Regarding `C=CS(=O)(=O)Nc1cccc(C)c1Nc1ncc2cc(-c3c(Cl)c(OC)cc(OC)c3Cl)ccc2n1` [COMPOUND 49A], the “Ratio FGFR1/FGFR4” value on wild type FGFR-4 is “E (the ratio is >10 and <50)”.
Consider `C=CC(=O)Nc1cccc(C)c1Nc1ncc(C#Cc2c(Cl)c(OC)cc(OC)c2Cl)cn1` [COMPOUND 24, N-(2-((5-((2,6-dichloro-3,5-dimethoxyphenyl)ethynyl)pyrimidin-2-yl)amino)-3-methylphenyl)acrylamide], for which, at wild type FGFR-1, the negative logarithm of the IC50 (pIC50) was less than 6.00.
Consider `C=CC(=O)Nc1ccc(F)c(F)c1Nc1ncc2cc(-c3c(Cl)c(OC)cc(OC)c3Cl)ccc2n1` [COMPOUND 37], for which, on wild type FGFR-4, the pIC50 was greater than 8.00; the “Ratio FGFR1/FGFR4” value was “C (the ratio is ≥100 and <200)”.
Consider `C=CC(=O)Nc1ccccc1-c1ccn2c(-c3cccc(NC(=O)NCC(F)(F)F)c3)cnc2c1` [COMPOUND 21, N-(2-(3-(3-(3-(2,2,2-trifluoroethyl)ureido)phenyl)imidazo[1,2-a]pyridin-7-yl)phenyl)acrylamide], for which the pIC50 at wild type FGFR-1 is less than 6.00.
In the case of `C=CC(=O)N(C)c1ncc2c(n1)N(C)C(=O)N(c1c(Cl)c(OC)cc(OC)c1Cl)C2` [COMPOUND 14], the “Ratio FGFR1/FGFR4” value on wild type FGFR-4 is “F (the ratio of [IC50 for FGFR1]/[IC50 for FGFR4] is less than 10)”.
Turning to `C=CC(=O)Nc1cccc(C)c1Nc1ncc2cc(-c3c(Cl)c(OC)cc(OC)c3Cl)c(OC)cc2n1` [COMPOUND 42, N-(2-((6-(2,6-dichloro-3,5-dimethoxyphenyl)-7-methoxyquinazolin-2-yl)amino)-3-methylphenyl)acrylamide], on wild type FGFR-4, the pIC50 is greater than 8.00 and the “Ratio FGFR1/FGFR4” value was “F (the ratio of [IC50 for FGFR1]/[IC50 for FGFR4] is less than 10)”.
With `C=CC(=O)Nc1cc(C(=O)NC2CCN(C)CC2)ccc1Nc1ncc(C)c(N2CCN(C(=O)Nc3ccc(C#N)cc3)CC2)n1` [COMPOUND 54, 4-(2-((2-acrylamido-4-((1-methylpiperidin-4-yl)carbamoyl)phenyl)amino)-5-methylpyrimidin-4-yl)-N-(4-cyanophenyl)piperazine-1-carboxamide], the pIC50 at wild type FGFR-1 is less than 6.00.
As to `C=CC(=O)N(C)c1ncc2cc(-c3c(Cl)c(OC)cc(OC)c3Cl)c(=O)n(C)c2n1` [COMPOUND 12], on wild type FGFR-4, the pIC50 was greater than 8.00; the “Ratio FGFR1/FGFR4” value was “D (the ratio is ≥50 and <100)”.
With `C=CC(=O)Nc1cccc(C)c1Nc1ncc2c(n1)N(C)C(=O)N(c1c(Cl)c(OC)cc(OC)c1Cl)C2` [COMPOUND 48, N-(2-((6-(2,6-dichloro-3,5-dimethoxyphenyl)-8-methyl-7-oxo-5,6,7,8-tetrahydropyrimido[4,5-d]pyrimidin-2-yl)amino)-3-methylphenyl)acrylamide], at wild type FGFR-4, the negative-log IC50 (pIC50) is greater than 8.00; the “Ratio FGFR1/FGFR4” value was “E (the ratio is >10 and <50)”.
